Measurements: publication PMC11506356, “Selective Inhibition of Deamidated Triosephosphate Isomerase by Disulfiram, Curcumin, and Sodium Dichloroacetate: Synergistic Therapeutic Strategies for T-Cell Acute Lymphoblastic Leukemia in Jurkat Cells” (Biomolecules, 2024)

What was measured:
[1] = target: T1, deamidated triosephosphate isomerase (dTPI) (Homo sapiens, UniProt P60174, N16D); assay: recombinant enzyme inactivation ([…] h, […] °C; coupled NADH assay), Ellman free-thiol quantification, ANS fluorescence; type: biochemical; details: 2 h; read-out: recombinant enzyme inactivation (2 h, 37 °C; coupled NADH assay), Ellman free-th
T1 construct: gene TPI1; recombinant human TPI, His-TEV tag removed

[2] = target: T1, deamidated triosephosphate isomerase (dTPI); assay: recombinant enzyme inactivation ([…] h, […] °C; coupled NADH assay), ANS fluorescence; type: biochemical; details: 2 h; read-out: recombinant enzyme inactivation (2 h, 37 °C; coupled NADH assay), ANS fluorescen

T1 sequence (P60174 2-249 N16D): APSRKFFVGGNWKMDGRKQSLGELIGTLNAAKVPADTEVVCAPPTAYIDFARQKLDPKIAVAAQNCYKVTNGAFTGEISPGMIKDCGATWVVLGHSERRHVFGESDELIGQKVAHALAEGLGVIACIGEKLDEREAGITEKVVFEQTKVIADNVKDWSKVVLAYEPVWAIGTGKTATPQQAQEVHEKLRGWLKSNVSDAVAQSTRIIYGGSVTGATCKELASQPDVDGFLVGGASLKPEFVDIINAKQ

SMILES | IC100 [1] | IC90 [2]
CCN(CC)C(=S)SSC(=S)N(CC)CC [DS, disulfiram] | 250 µM | –
COc1cc(/C=C/C(=O)CC(=O)/C=C/c2ccc(O)c(OC)c2)ccc1O [CU, curcumin] | – | ~1500 µM
